Data from patent US11623924B2, “Modulators of alpha-1 antitrypsin” (Vertex Pharmaceuticals Incorporated, priority 2018, dated 2023).

Target: T1, NL20 human bronchial epithelial cells expressing human Z-AAT (Homo sapiens, UniProt P01009, E366K)
T1 construct: expressed in transfected cells; host or cells: NL20 human bronchial epithelial cells (NL20-SI line, doxycycline added)
Test: AAT Function Assay (MSD Assay NL20-SI Cell Line)
Format: cell-based
Settings: functionally active AAT (AAT-hNE complex) in supernatant of NL20 cells expressing human Z-AAT; read-out: NL20 Func. (EC50)
In short: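 NL20 cells expressing Z-AAT, seeded 16,000 cells/well, received compound with doxycycline (0.1 μM final) and were incubated overnight at 37° C. Supernatants, diluted 45-fold in total, reacted with excess human neutrophil elastase; AAT-elastase complex captured on anti-AAT plates, detected with Sulfo-tagged anti-elastase by MSD electrochemiluminescence, and quantified against M-AAT standards (0.156-320 ng/mL).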

T1 sequence (P01009 25-418 E366K): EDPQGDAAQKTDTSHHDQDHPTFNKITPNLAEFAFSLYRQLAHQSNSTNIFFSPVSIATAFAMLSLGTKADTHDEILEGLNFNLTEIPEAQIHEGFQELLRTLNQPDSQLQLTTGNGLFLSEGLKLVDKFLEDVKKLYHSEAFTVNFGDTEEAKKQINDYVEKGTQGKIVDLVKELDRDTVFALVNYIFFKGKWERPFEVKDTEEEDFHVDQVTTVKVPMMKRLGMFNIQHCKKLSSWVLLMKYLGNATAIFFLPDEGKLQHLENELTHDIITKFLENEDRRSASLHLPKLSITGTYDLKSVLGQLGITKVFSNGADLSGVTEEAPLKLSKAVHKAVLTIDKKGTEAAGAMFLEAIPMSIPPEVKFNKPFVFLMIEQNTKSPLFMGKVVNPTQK

SMILES | EC50 [µM]
O=C(O)C1CC2(C1)CC(c1c(C3CCOC3)n(-c3ccc(F)cc3)c3cc4cn[nH]c4cc13)C2 (racemic) [Compound 140, 6-[5-(4-fluorophenyl)-6-tetrahydrofuran-3-yl-1H-pyrrolo[2,3-f]indazol-7-yl]spiro[3.3]heptane-2-carboxylic acid] | > 3
CC(C)(CC#N)c1c(CCC(=O)O)c2cc3[nH]ncc3cc2n1-c1ccc(F)cc1 [Compound 190, 3-[6-(2-cyano-1,1-dimethyl-ethyl)-5-(4-fluorophenyl)-1H-pyrrolo[2,3-f]indazol-7-yl]propanoic Acid] | > 3
Cc1cc(-n2c(C(C)C)c(S(C)(=O)=O)c3cc4[nH]nc(F)c4cc32)ccc1F [Compound 47, 3-fluoro-5-(4-fluoro-3-methyl-phenyl)-6-isopropyl-7-methylsulfonyl-1H-pyrrolo[2,3-f]indazole] | > 3
Cc1cc(-n2c(C3CCOCC3)c(CC3CC3C(=O)O)c3cc4[nH]ncc4cc32)ccc1F (single isomer, unassigned) [Compound 102] | > 3
NC(=O)CCc1c(C2CCOCC2)n(-c2ccc(F)cc2)c2cc3cn[nH]c3cc12 [Compound 166, 3-[5-(4-fluorophenyl)-6-tetrahydropyran-4-yl-1H-pyrrolo[2,3-f]indazol-7-yl]propanamide] | > 3
CC(C)c1c(C2CNC2)c2cc3[nH]ncc3cc2n1-c1ccc(F)cc1 [Compound 174, 7-(azetidin-3-yl)-5-(4-fluorophenyl)-6-isopropyl-1H-pyrrolo[2,3-f]indazole] | > 3
Cc1cc(-n2c(C3CCOCC3)c(CC34CC(C(=O)O)(C3)C4)c3cc4[nH]ncc4cc32)ccc1F [Compound 103] | > 3
NC(=O)NCCCc1c(C2CCOCC2)n(-c2ccc(F)cc2)c2cc3cn[nH]c3cc12 [Compound 157, 3-[5-(4-fluorophenyl)-6-tetrahydropyran-4-yl-1H-pyrrolo[2,3-f]indazol-7-yl]propylurea] | > 3
CC1(C(=O)O)CC(c2c(C3CCOCC3)n(-c3ccc(F)c(F)c3)c3cc4cn[nH]c4cc23)C1 (single isomer, unassigned) [Compound 69] | > 3
Cc1cc(-n2c(C(C)C)cc3c(C)c4[nH]ncc4cc32)ccc1F [Compound 49, 5-(4-fluoro-3-methyl-phenyl)-6-isopropyl-8-methyl-1H-pyrrolo[2,3-f]indazole] | > 3
CC(C)(CC#N)c1c(CCC(N)=O)c2cc3[nH]ncc3cc2n1-c1ccc(F)cc1 [Compound 191, 3-[6-(2-cyano-1,1-dimethyl-ethyl)-5-(4-fluorophenyl)-1H-pyrrolo[2,3-f]indazol-7-yl]propanamide] | > 3
CC(C)c1c(CCC(=O)O)c2cc3nn[nH]c3cc2n1-c1ccc(F)cc1 [Compound 214, 3-(5-(4-fluorophenyl)-6-isopropyl-3,5-dihydro-[1,2,3]triazolo[4,5-f]indol-7-yl)propanoic Acid] | > 3
Cc1cc(-n2c(C(C)C)c(CCC(=O)O)c3cc4[nH]nc(C)c4cc32)ccc1F [Compound 54, 3-[5-(4-fluoro-3-methyl-phenyl)-6-isopropyl-3-methyl-1H-pyrrolo[2,3-f]indazol-7-yl]propanoic Acid] | > 3
CC(C)c1c(S(C)(=O)=O)c2cc3[nH]ncc3cc2n1-c1ccc(F)cc1 [Compound 30, 5-(4-fluorophenyl)-6-isopropyl-7-methylsulfonyl-1H-pyrrolo[2,3-f]indazole] | > 3
O=C(O)CCc1c(C2CNC2)n(-c2ccc(F)cc2)c2cc3cn[nH]c3cc12 [Compound 198, 3-[6-(azetidin-3-yl)-5-(4-fluorophenyl)-1H-pyrrolo[2,3-f]indazol-7-yl]propanoic Acid] | > 3
O=C(OCc1ccccc1)N1CCCC(Cc2c(C3CCOCC3)n(-c3ccc(F)cc3)c3cc4cn[nH]c4cc23)C1 (stereo not drawn) [Compound 154, benzyl 3-[[5-(4-fluorophenyl)-6-tetrahydropyran-4-yl-M-pyrrolo[2,3-f]indazol-7-yl]methyl]piperidine-1-carboxylate] | 1.16 to 3
CC(C)c1c(CCC(=O)O)c2cc3[nH]ncc3cc2n1-c1ccc(F)c(F)c1 [Compound 38, 3-[5-(3,4-difluorophenyl)-6-isopropyl-1H-pyrrolo[2,3-f]indazol-7-yl]propanoic Acid] | 1.16 to 3
O=C1CCCC(c2c(C3CCOCC3)n(-c3ccc(F)cc3)c3cc4cn[nH]c4cc23)C1 (racemic) [Compound 121, 3-[5-(4-fluorophenyl)-6-tetrahydropyran-4-yl-1H-pyrrolo[2,3-f]indazol-7-yl]cyclohexanone] | 1.16 to 3
O=C(OCc1ccccc1)N1CCC(Cc2c(C3CCOCC3)n(-c3ccc(F)cc3)c3cc4cn[nH]c4cc23)CC1 [Compound 152, Benzyl 4-[[5-(4-fluorophenyl)-6-tetrahydropyran-4-yl-1H-pyrrolo[2,3-f]indazol-7-yl]methyl]piperidine-1-carboxylate] | 1.16 to 3
COCCc1c(C2CCOCC2)n(-c2ccc(F)cc2)c2cc3cn[nH]c3cc12 [Compound 149] | 1.16 to 3

Further lines, results first:

EC50 [µM] | SMILES
< 1.16 | O=C(O)C1CC2(C1)CC(c1c(C3CCOCC3)n(-c3ccc(F)c(Cl)c3)c3cc4cn[nH]c4cc13)C2 (single isomer, unassigned) [Compound 77]
1.16 to 3 | Cc1cc(F)ccc1-n1c(C2CCOCC2)c(CC2(C(=O)O)CC2)c2cc3[nH]ncc3cc21 [Compound 124, 1-[[5-(4-fluoro-2-methyl-phenyl)-6-tetrahydropyran-4-yl-1H-pyrrolo[2,3-f]indazol-7-yl]methyl]cyclopropanecarboxylic Acid]
1.16 to 3 | Cc1cc(-n2c(C3CCOCC3)c(CCCC(=O)O)c3cc4[nH]ncc4cc32)ccc1F [Compound 88]
< 1.16 | CC(C)c1c(C#N)c2cc3[nH]ncc3cc2n1-c1ccc(F)cc1 [Compound 29, 5-(4-fluorophenyl)-6-isopropyl-1H-pyrrolo[2,3-f]indazole-7-carbonitrile]
1.16 to 3 | [2H]C([2H])(CC(=O)O)c1c(C(C)C)n(-c2ccc(F)cc2)c2cc3cn[nH]c3cc12 [Compound 169, 3,3-dideuterio-3-[5-(4-fluorophenyl)-6-isopropyl-1H-pyrrolo[2,3-f]indazol-7-yl]propanoic Acid]
1.16 to 3 | Cc1cc(-n2c(C3CCOCC3)c(C3CC4(CC(C(=O)O)C4)C3)c3cc4[nH]nc(C)c4cc32)ccc1F (racemic) [Compound 126, 6-[5-(4-fluoro-3-methyl-phenyl)-3-methyl-6-tetrahydropyran-4-yl-1H-pyrrolo[2,3-f]indazol-7-yl]spiro[3.3]heptane-2-carboxylic acid]
< 1.16 | CC1(C(=O)O)CC(c2c(C3CCOCC3)n(-c3ccc(F)c(F)c3)c3cc4cn[nH]c4cc23)C1 (single isomer, unassigned) [Compound 70]
1.16 to 3 | COCC(C)(C)c1c(CC2CC(C(=O)O)C2)c2cc3[nH]ncc3cc2n1-c1ccc(F)cc1 (stereo not drawn) [Compound 175]
< 1.16 | O=C(O)c1ccc(C#Cc2c(C3CCOCC3)n(-c3ccc(F)cc3)c3cc4cn[nH]c4cc23)cc1 [Compound 215, 4-[2-[5-(4-fluorophenyl)-6-tetrahydropyran-4-yl-1H-pyrrolo[2,3-f]indazol-7-yl]ethynyl]benzoic Acid]
1.16 to 3 | Cc1cc(-n2c(C3CCOCC3)c(C3CC4(CC(C(=O)O)C4)C3)c3cc4[nH]nc(C)c4cc32)ccc1F (single isomer, unassigned) [Compound 128, 6-[5-(4-fluoro-3-methyl-phenyl)-3-methyl-6-tetrahydropyran-4-yl-1H-pyrrolo[2,3-f]indazol-7-yl]spiro[3.3]heptane-2-carboxylic acid]
< 1.16 | Cc1cc(-n2c(C(C)C)c(C3CC4(CC(C(=O)O)C4)C3)c3cc4[nH]ncc4cc32)ccc1F (single isomer, unassigned) [Compound 26]
1.16 to 3 | O=C(O)C1CC2(C1)CC(c1c(C3CCOCC3)n(-c3ccc(F)cc3)c3cc4cn[nH]c4cc13)C2 (racemic) [Compound 108, 6-(5-(4-fluorophenyl)-6-(tetrahydro-2H-pyran-4-yl)-1,5-dihydropyrrolo[2,3-f]indazol-7-yl)spiro[3.3]heptane-2-carboxylic Acid]
1.16 to 3 | O=C(O)C1(Cc2c(C3CCOCC3)n(-c3ccc(F)cc3)c3cc4cn[nH]c4cc23)CC1 [Compound 111]
1.16 to 3 | [H][C@]1(C(=O)O)C[C@]2(C1)C[C@]([H])(c1c(C3CCOCC3)n(-c3ccc(F)cc3)c3cc4cn[nH]c4cc31)C2 (single isomer, unassigned) [Compound 110]
< 1.16 | Cc1cc(-n2c(C3CCOCC3)c(C[C@H]3CC[C@H](C(=O)O)CC3)c3cc4[nH]ncc4cc32)ccc1F (single isomer, unassigned) [Compound 106]
< 1.16 | CC(C)c1c(C2CC3(CC(C(=O)O)C3)C2)c2cc3[nH]ncc3cc2n1-c1ccc(F)cc1 (racemic) [Compound 34, 6-[5-(4-fluorophenyl)-6-isopropyl-1H-pyrrolo[2,3-f]indazol-7-yl]spiro[3.3]heptane-2-carboxylic acid]
< 1.16 | O=C(O)[C@H]1CC[C@@H](Cc2c(C3CCOCC3)n(-c3ccc(F)c(F)c3)c3cc4cn[nH]c4cc23)CC1 (single isomer, unassigned) [Compound 73]
1.16 to 3 | CNS(=O)(=O)CCc1c(C2CCOCC2)n(-c2ccc(F)cc2)c2cc3cn[nH]c3cc12 [Compound 159, 2-[5-(4-fluorophenyl)-6-tetrahydropyran-4-yl-1H-pyrrolo[2,3-f]indazol-7-yl]-N-methyl-ethanesulfonamide]
< 1.16 | CC(C)c1c(CCC(=O)O)c2c(F)c3[nH]ncc3cc2n1-c1ccc(F)cc1 [Compound 53, 3-[8-fluoro-5-(4-fluorophenyl)-6-isopropyl-1H-pyrrolo[2,3-f]indazol-7-yl]propanoic Acid]
